Laboratory results from ChEMBL document CHEMBL5465560, “Selectivity Literature for EUbOPEN Chemogenomic Library” (2024).
pIC50: −log10 of the molar value. Blank lines part the entries; values can stand above or below the molecule they belong to.

Tests used:
CDK9/cyclin T1 = CDK9/cyclin T1 (Homo sapiens, UniProt P50750); assay: Selectivity interaction (Radiometric kinase assay ) EUB0000090b CDK9; assay type: protein-complex assay
[1] = molecular target: Ribosomal protein S6 kinase alpha-3 (Homo sapiens, UniProt P51812); assay: Selectivity interaction (ActivX KiNativ screen (kinase selectivity in THP-1 cell lysates)) EUB0000639a RPS6KA3; assay type: subcellular; settings: lysate, at 0.04 µM
[2] = molecular target: T1, Serine/threonine-protein kinase 3 (Homo sapiens) (UniProt Q13188); assay: Selectivity interaction (ActivX KiNativ screen (kinase selectivity in THP-1 cell lysates)) EUB0000639a STK3; assay type: subcellular; settings: lysate, at 0.04 µM
T1 sequence (whole entry): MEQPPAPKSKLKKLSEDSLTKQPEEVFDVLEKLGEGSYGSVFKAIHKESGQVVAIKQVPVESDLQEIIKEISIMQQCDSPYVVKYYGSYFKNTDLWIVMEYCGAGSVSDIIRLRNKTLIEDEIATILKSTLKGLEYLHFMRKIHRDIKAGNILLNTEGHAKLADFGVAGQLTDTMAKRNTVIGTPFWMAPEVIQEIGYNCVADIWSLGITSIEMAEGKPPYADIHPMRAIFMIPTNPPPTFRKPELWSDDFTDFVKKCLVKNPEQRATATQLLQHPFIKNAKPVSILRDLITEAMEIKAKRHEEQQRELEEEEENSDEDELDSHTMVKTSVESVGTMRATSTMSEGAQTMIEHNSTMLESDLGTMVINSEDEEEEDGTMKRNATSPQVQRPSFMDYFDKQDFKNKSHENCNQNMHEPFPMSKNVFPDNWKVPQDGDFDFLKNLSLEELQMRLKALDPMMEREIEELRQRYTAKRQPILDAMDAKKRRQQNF

[3] = molecular target: T2, Ephrin type-B receptor 1 (Homo sapiens) (UniProt P54762); assay: Selectivity interaction (KinomeScan (DiscoverX)) EUB0000655a EPHB1; settings: at 10 µM
T2 sequence (whole entry): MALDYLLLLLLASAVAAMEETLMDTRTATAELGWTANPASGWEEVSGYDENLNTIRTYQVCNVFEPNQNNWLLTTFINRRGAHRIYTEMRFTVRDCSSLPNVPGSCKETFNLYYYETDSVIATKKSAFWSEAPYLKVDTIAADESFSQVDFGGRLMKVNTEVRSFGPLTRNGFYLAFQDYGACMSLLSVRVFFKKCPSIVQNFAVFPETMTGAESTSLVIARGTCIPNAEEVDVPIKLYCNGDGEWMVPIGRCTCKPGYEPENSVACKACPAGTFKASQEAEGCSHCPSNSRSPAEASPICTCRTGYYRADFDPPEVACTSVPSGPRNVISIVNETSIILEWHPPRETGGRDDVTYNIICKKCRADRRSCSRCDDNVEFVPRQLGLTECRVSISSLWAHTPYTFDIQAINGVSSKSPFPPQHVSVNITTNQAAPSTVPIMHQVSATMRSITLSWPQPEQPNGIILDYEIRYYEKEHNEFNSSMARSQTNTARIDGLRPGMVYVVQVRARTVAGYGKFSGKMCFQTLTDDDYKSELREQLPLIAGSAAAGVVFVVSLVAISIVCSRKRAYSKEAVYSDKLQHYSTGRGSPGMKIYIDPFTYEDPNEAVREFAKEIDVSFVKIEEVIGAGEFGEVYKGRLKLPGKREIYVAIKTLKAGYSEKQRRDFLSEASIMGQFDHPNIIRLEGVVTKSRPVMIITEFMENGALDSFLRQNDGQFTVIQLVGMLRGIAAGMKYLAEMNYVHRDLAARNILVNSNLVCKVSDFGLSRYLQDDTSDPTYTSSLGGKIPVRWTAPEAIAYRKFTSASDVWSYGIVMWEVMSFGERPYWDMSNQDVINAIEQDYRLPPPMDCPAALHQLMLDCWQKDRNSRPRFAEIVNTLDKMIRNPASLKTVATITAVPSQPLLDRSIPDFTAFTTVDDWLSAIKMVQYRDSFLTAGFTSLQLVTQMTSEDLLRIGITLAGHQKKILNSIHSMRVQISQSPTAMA

[4] = molecular target: T3, Serine/threonine-protein kinase 36 (Homo sapiens) (UniProt Q9NRP7); assay: Selectivity interaction (KinomeScan (DiscoverX)) EUB0000666a STK36; settings: at 10 µM
T3 sequence (whole entry): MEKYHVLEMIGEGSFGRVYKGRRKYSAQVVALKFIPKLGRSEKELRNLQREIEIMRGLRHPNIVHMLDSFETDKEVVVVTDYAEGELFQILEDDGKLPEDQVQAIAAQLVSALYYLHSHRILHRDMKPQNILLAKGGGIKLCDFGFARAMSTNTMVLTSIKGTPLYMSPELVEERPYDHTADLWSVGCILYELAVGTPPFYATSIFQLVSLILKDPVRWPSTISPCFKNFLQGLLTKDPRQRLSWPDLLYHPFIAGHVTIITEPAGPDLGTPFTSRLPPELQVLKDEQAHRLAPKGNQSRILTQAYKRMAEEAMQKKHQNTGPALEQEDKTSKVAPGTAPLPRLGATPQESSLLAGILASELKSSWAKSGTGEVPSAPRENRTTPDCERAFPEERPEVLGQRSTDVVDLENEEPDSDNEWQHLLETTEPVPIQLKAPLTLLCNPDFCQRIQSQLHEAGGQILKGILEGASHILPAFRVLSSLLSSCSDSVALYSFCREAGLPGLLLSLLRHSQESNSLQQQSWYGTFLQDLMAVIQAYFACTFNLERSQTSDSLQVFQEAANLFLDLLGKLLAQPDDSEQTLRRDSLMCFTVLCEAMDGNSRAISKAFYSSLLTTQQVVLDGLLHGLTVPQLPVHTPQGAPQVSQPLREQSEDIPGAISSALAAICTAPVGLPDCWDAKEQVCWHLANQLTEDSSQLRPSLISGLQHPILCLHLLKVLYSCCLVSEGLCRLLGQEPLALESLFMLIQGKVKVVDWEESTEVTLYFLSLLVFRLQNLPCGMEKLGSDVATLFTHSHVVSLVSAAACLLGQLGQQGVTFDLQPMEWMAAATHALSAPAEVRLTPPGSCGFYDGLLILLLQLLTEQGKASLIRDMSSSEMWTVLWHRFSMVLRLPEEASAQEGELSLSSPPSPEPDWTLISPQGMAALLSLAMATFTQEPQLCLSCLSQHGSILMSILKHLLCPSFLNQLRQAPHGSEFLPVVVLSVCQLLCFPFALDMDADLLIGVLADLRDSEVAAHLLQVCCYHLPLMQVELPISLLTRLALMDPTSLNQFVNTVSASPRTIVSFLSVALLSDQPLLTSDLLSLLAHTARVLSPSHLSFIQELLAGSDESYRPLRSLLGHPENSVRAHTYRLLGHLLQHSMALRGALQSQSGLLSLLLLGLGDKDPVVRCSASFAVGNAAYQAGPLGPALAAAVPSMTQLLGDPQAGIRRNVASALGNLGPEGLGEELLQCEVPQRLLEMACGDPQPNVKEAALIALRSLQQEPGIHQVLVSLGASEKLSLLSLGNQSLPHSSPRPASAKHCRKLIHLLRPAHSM

Sequence of Ribosomal protein S6 kinase alpha-3 (P51812 whole entry): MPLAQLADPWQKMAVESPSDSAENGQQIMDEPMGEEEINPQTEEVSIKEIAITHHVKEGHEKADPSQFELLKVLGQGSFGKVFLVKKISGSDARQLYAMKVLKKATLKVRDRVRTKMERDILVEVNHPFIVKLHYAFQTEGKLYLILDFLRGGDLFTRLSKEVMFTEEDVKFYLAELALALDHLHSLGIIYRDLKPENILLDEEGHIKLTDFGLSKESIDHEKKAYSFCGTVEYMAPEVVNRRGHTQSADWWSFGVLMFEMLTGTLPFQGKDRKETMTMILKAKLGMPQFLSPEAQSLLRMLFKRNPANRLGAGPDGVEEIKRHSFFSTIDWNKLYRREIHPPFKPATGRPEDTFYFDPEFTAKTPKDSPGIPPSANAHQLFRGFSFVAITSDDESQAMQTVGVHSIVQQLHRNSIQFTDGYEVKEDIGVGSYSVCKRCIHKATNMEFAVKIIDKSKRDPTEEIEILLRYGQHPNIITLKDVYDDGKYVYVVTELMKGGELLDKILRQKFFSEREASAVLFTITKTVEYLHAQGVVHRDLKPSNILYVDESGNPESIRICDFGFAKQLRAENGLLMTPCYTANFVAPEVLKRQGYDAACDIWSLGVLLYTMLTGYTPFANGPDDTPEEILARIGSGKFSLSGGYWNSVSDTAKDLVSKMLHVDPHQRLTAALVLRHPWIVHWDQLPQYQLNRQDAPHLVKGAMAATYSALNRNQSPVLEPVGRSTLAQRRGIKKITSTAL
Sequence of CDK9/cyclin T1 (O60563 whole entry): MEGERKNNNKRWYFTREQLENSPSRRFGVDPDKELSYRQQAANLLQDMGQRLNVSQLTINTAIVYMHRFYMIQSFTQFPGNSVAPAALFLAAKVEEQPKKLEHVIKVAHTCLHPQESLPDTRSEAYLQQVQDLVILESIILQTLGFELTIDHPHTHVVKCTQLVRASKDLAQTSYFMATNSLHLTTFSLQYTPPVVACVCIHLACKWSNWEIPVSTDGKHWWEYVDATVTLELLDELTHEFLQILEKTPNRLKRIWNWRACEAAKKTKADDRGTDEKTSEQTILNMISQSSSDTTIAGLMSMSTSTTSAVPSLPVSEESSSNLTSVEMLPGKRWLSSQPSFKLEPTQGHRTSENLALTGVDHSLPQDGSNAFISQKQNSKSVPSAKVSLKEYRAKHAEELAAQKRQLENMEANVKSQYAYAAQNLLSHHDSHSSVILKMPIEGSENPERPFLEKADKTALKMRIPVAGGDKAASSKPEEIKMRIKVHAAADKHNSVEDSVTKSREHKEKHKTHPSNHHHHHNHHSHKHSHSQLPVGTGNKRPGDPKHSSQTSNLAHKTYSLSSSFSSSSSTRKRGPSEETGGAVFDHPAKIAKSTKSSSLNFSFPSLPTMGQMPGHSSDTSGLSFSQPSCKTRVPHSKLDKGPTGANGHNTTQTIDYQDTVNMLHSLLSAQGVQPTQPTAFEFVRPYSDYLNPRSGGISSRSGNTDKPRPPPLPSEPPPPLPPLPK
Sequence of CDK9/cyclin T1 (P50750 whole entry): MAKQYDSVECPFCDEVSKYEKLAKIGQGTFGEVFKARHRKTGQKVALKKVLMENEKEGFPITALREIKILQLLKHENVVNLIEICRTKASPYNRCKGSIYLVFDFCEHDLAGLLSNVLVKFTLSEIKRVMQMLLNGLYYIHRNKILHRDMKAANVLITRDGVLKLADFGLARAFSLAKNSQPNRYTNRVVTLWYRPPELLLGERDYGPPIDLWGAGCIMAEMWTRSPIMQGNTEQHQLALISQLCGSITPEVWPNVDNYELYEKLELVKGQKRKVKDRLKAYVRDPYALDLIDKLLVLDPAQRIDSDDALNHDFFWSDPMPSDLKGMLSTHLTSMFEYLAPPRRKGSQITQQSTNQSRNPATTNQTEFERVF

SMILES: CN(C)C/C=C/C(=O)Nc1ccc(C(=O)N2CCCC(Nc3ncc(Cl)c(-c4c[nH]c5ccccc45)n3)C2)cc1 (stereo not given)
pIC50 (CDK9/cyclin T1): 4.98

% of inhibition [1]: 16.1%
% of inhibition [2]: 2.2%
SMILES: CC[C@@H]1[C@H](F)C(=O)N[C@@H]1COc1nccc2cc(C(N)=O)c(OC)cc12 [ZIMLOVISERTIB]

SMILES: CN(C)CCOc1ccc(-c2nc(-c3ccncc3)c(-c3ccc4c(c3)CC/C4=N\O)[nH]2)cc1
% of control [3]: 100%

SMILES: O=C(NOC[C@H](O)CO)c1ccc(F)c(F)c1Nc1ccc(I)cc1F
% of control [4]: 74%
